Laboratory results as given in patent US20160222056A1, “SUBSTITUTED PHENYLALANINE DERIVATIVES” (BAYER PHARMA AKTIENGESELLSCHAFT, priority 2013, published 2016).
Counter-ions that a name gives are not always drawn.

Columns and labels:
human and animal plasma = assay: Anticoagulatory activity: activated partial thromboplastin time (aPTT) in plasma; type: biochemical; conditions: in vitro in plasma, C.K. Prest kit, 37° C. for 3 minutes; plasma species of Table B not stated
Description: The anticoagulatory activity of the test substances is determined in vitro in human and animal plasma (for example mouse, rat, rabbit, pig and dog plasma). To this end, blood is drawn off in a mixing ratio of sodium citrate/blood of 1:9 using a 0.11 molar sodium citrate solution as receiver. Immediately after the blood has been drawn off, it is mixed thoroughly and centrifuged at about 4000 g for 15 minutes. The supernatant is pipetted off.
The activated partial thromboplastin time (aPTT) is determined in the presence of varying concentrations of test substance or the corresponding solvent using a commercial test kit (C.K. Prest from Diagnostica Stago). The test compounds are incubated with the plasma and the PTT reagent (cephalin, kaolin) at 37° C. for 3 minutes. Coagulation is then started by addition of 25 mM aqueous calcium chloride, and the time when coagulation occurs is determined. The concentration of test substance which brings about a 1.5-fold extension of the aPTT is determined.

human factor XIa = molecular target: T1, human factor XIa (Homo sapiens, UniProt P03951); assay: Measurement of FXIa inhibition (fluorogenic peptide substrate); type: biochemical; conditions: human factor XIa from Kordia, substrate Boc-Glu(OBzl)-Ala-Arg-AMC, 30 min at 22° C.; read-out: IC50 (FXIa inhibition)
T1 construct: purchased Kordia
T1 sequence (P03951 388-625 limits assumed): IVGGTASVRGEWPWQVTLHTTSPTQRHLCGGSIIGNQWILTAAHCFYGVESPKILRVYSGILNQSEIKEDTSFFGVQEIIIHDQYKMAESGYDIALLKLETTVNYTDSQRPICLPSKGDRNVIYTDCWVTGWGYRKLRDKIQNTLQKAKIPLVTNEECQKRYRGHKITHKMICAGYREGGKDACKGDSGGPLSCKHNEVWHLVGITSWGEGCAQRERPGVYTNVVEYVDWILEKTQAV
T1 sequence (P03951 19-387 partner limits assumed): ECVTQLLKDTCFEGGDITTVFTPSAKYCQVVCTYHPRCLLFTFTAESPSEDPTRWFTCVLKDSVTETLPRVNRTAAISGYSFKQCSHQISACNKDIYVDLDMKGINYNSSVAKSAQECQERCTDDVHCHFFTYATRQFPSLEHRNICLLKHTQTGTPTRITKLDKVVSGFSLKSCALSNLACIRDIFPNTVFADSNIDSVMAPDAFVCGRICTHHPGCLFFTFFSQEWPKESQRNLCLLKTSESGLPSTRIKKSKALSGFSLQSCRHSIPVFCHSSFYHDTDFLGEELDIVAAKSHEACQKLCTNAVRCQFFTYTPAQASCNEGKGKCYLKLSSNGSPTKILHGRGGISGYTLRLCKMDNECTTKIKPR
Description: To determine the factor XIa inhibition of the substances according to the invention, a biochemical test system is used which utilizes the reaction of a peptidic factor XIa substrate to determine the enzymatic activity of human factor XIa. Here, factor XIa cleaves from the peptic factor XIa substrate the C-terminal aminomethylcoumarin (AMC), the fluorescence of which is measured. The determinations are carried out in microtitre plates.
Test substances are dissolved in dimethyl sulphoxide and serially diluted in dimethyl sulphoxide (3000 μM to 0.0078 μM; resulting final concentrations in the test: 50 μM to 0.00013 μM). In each case 1 μl of the diluted substance solutions are placed into the wells of white microtitre plates from Greiner (384 wells). Subsequently, the following are added successively: 20 μl of assay buffer (50 mmol/1 Tris buffer pH 7.4; 100 mmol/1 sodium chloride; 5 mmol/1 calcium chloride; 0.1% bovine serum albumin) and 20 μl of factor XIa from Kordia (0.45 nM in assay buffer). After 15 min of incubation, the enzyme reaction is started by addition of 20 μl of the factor XIa substrate Boc-Glu(OBzl)-Ala-Arg-AMC dissolved in assay buffer (10 μM in assay buffer) from Bachem, the mixture is incubated at room temperature (22° C.) for 30 min and fluorescence is then measured (excitation: 360 nm, emission: 460 nm). The measured emissions of the test batches with test substance are compared to those of control batches without test substance (only dimethyl sulphoxide instead of test substance in dimethyl sulphoxide), and the IC50 values are calculated from the concentration/activity relationships.

CCN(CC)CCNC(=O)c1ccc(-c2ccc(C[C@H](NC(=O)[C@H]3CC[C@H](CN)CC3)C(=O)Nc3ccc(-c4nn[nH]n4)cc3)cc2)c(C(F)(F)F)n1 [Example 1, N-alpha-{[trans-4-(Aminomethyl)cyclohexyl]carbonyl}-4-[6-{[2-(diethylamino)ethyl]carbamoyl}-2-(trifluoromethyl)pyridin-3-yl]-N-[4-(2H-tetrazol-5-yl)phenyl]-L-phenylalaninamide hydrochloride]
aPTT (concentration of test substance which brings about a 1.5-fold extension of the aPTT) (human and animal plasma): 0.1 µmol/L
IC50 (human factor XIa): 2 nM

Cc1nc(C(=O)NC2CCC(N(C)C)CC2)ccc1-c1ccc(C[C@H](NC(=O)[C@H]2CC[C@H](CN)CC2)C(=O)Nc2ccc(-c3nn[nH]n3)cc2)cc1 (stereo partly drawn) [Example 2, N-alpha-{[trans-4-(Aminomethyl)cyclohexyl]carbonyl}-4-(6-{[4-(dimethylamino)cyclohexyl]-carbamoyl}-2-methylpyridin-3-yl)-N-[4-(2H-tetrazol-5-yl)phenyl]-L-phenylalaninamide hydrochloride]
aPTT (concentration of test substance which brings about a 1.5-fold extension of the aPTT) (human and animal plasma): 0.08 µmol/L
IC50 (human factor XIa): 1.9 nM

CCN(CC)CCNC(=O)c1ccc(-c2ccc(C[C@H](NC(=O)[C@H]3CC[C@H](CN)CC3)C(=O)Nc3ccc(-c4nn[nH]n4)cc3)cc2)c(C)n1 [Example 3, N-alpha-{[trans-4-(Aminomethyl)cyclohexyl]carbonyl}-4-(6-{[2-(diethylamino)ethyl]carbamoyl}-2-methylpyridin-3-yl)-N-[4-(2H-tetrazol-5-yl)phenyl]-L-phenylalaninamide hydrochloride]
aPTT (concentration of test substance which brings about a 1.5-fold extension of the aPTT) (human and animal plasma): 0.16 µmol/L
IC50 (human factor XIa): 5.6 nM

Cc1nc(C(=O)N[C@H]2CCCNC2=O)ccc1-c1ccc(C[C@H](NC(=O)[C@H]2CC[C@H](CN)CC2)C(=O)Nc2ccc(-c3nn[nH]n3)cc2)cc1 [Example 4, N-alpha-{[trans-4-(Aminomethyl)cyclohexyl]carbonyl}-4-(2-methyl-6-{[(3S)-2-oxopiperidin-3-yl]carbamoyl}pyridin-3-yl)-N-[4-(2H-tetrazol-5-yl)phenyl]-L-phenylalaninamide hydrochloride]
aPTT (concentration of test substance which brings about a 1.5-fold extension of the aPTT) (human and animal plasma): 0.2 µmol/L
IC50 (human factor XIa): 1.3 nM

Cc1cc(C(=O)NC2CCNCC2)ncc1-c1ccc(C[C@H](NC(=O)[C@H]2CC[C@H](CN)CC2)C(=O)Nc2ccc(-c3nnn[nH]3)cc2)cc1 [Example 5, N-alpha-{[trans-4-(Aminomethyl)cyclohexyl]carbonyl}-4-[4-methyl-6-(piperidin-4-ylcarbamoyl)pyridin-3-yl]-N-[4-(1H-tetrazol-5-yl)phenyl]-L-phenylalaninamide hydrochloride]
aPTT (concentration of test substance which brings about a 1.5-fold extension of the aPTT) (human and animal plasma): 0.04 µmol/L
IC50 (human factor XIa): 1.9 nM

Cc1cc(C(=O)N2CC(C)NC(C)C2)ncc1-c1ccc(C[C@H](NC(=O)C2CCC(CN)CC2)C(=O)Nc2ccc(-c3nnn[nH]3)cc2)cc1 (stereo partly drawn) [Example 6, N-alpha-{[trans-4-(Aminomethyl)cyclohexyl]carbonyl}-4-{6-[(3,5-dimethylpiperazin-1-yl)carbonyl]-4-methylpyridin-3-yl}-N-[4-(1H-tetrazol-5-yl)phenyl]-L-phenylalaninamide hydrochloride]
aPTT (concentration of test substance which brings about a 1.5-fold extension of the aPTT) (human and animal plasma): 0.04 µmol/L
IC50 (human factor XIa): 4.1 nM

CCN(CC)C1CCC(NC(=O)c2cc(C)c(-c3ccc(C[C@H](NC(=O)[C@H]4CC[C@H](CN)CC4)C(=O)Nc4ccc(-c5nnn[nH]5)cc4)cc3)cn2)CC1 (stereo partly drawn) [Example 7, N-alpha-{[trans-4-(Aminomethyl)cyclohexyl]carbonyl}-4-(6-{[4-(diethylamino)cyclohexyl]-carbamoyl}-4-methylpyridin-3-yl)-N-[4-(1H-tetrazol-5-yl)phenyl]-L-phenylalaninamide hydrochloride]
aPTT (concentration of test substance which brings about a 1.5-fold extension of the aPTT) (human and animal plasma): 0.04 µmol/L
IC50 (human factor XIa): 2.6 nM

Cc1cc(C(=O)NC2CCNCC2F)ncc1-c1ccc(C[C@H](NC(=O)C2CCC(CN)CC2)C(=O)Nc2ccc(-c3nnn[nH]3)cc2)cc1 (stereo partly drawn) [Example 8, N-alpha-{[trans-4-(Aminomethyl)cyclohexyl]carbonyl}-4-{6-[(3-fluoropiperidin-4-yl)carbamoyl]-4-methylpyridin-3-yl}-N-[4-(1H-tetrazol-5-yl)phenyl]-L-phenylalaninamide hydrochloride]
aPTT (concentration of test substance which brings about a 1.5-fold extension of the aPTT) (human and animal plasma): 0.05 µmol/L
IC50 (human factor XIa): 2.2 nM

CCN(CC)CCCNC(=O)c1cc(C)c(-c2ccc(C[C@H](NC(=O)[C@H]3CC[C@H](CN)CC3)C(=O)Nc3ccc(-c4nnn[nH]4)cc3)cc2)cn1 [Example 9, N-alpha-{[trans-4-(Aminomethyl)cyclohexyl]carbonyl}-4-(6-{[3-(diethylamino)propyl]-carbamoyl}-4-methylpyridin-3-yl)-N-[4-(1H-tetrazol-5-yl)phenyl]-L-phenylalaninamide hydrochloride]
aPTT (concentration of test substance which brings about a 1.5-fold extension of the aPTT) (human and animal plasma): 0.05 µmol/L
IC50 (human factor XIa): 5.2 nM

Cc1cc(C(=O)NC2CC3CCC(C2)N3)ncc1-c1ccc(CC(NC(=O)C2CCC(CN)CC2)C(=O)Nc2ccc(-c3nnn[nH]3)cc2)cc1 [Example 10, N-alpha-{[trans-4-(Aminomethyl)cyclohexyl]carbonyl}-4-{6-[(1R,5S)-8-azabicyclo[3.2.1]oct-3-ylcarbamoyl]-4-methylpyridin-3-yl}-N-[4-(1H-tetrazol-5-yl)phenyl]-L-phenylalaninamide hydrochloride]
aPTT (concentration of test substance which brings about a 1.5-fold extension of the aPTT) (human and animal plasma): 0.07 µmol/L
IC50 (human factor XIa): 3 nM

Cc1cc(C(=O)NC2CC3COCC(C2)N3)ncc1-c1ccc(C[C@H](NC(=O)C2CCC(CN)CC2)C(=O)Nc2ccc(-c3nnn[nH]3)cc2)cc1 (stereo partly drawn) [Example 11, N-alpha-{[trans-4-(Aminomethyl)cyclohexyl]carbonyl}-4-[4-methyl-6-(3-oxa-9-azabicyclo[3.3.1]non-7-ylcarbamoyl)pyridin-3-yl]-N-[4-(1H-tetrazol-5-yl)phenyl]-L-phenylalaninamide hydrochloride]
aPTT (concentration of test substance which brings about a 1.5-fold extension of the aPTT) (human and animal plasma): 0.07 µmol/L
IC50 (human factor XIa): 5.2 nM

Cc1cc(C(=O)NCCCN(C)C)ncc1-c1ccc(C[C@H](NC(=O)[C@H]2CC[C@H](CN)CC2)C(=O)Nc2ccc(-c3nnn[nH]3)cc2)cc1 [Example 12, N-alpha-{[trans-4-(Aminomethyl)cyclohexyl]carbonyl}-4-(6-{[3-(dimethylamino)propyl]-carbamoyl}-4-methylpyridin-3-yl)-N-[4-(1H-tetrazol-5-yl)phenyl]-L-phenylalaninamide hydrochloride]
aPTT (concentration of test substance which brings about a 1.5-fold extension of the aPTT) (human and animal plasma): 0.08 µmol/L
IC50 (human factor XIa): 4.8 nM

Cc1nc(C(=O)NC2CCN(C)CC2)ccc1-c1ccc(C[C@H](NC(=O)[C@H]2CC[C@H](CN)CC2)C(=O)Nc2ccc(-c3nnn[nH]3)cc2)cc1 [Example 30, N-alpha-{[trans-4-(Aminomethyl)cyclohexyl]carbonyl}-4{-2-methyl-6-[(1-methylpiperidin-4-yl)carbamoyl]pyridin-3-yl}-N-[4-(1H-tetrazol-5-yl)phenyl]-L-phenylalaninamide hydrochloride]
IC50 (human factor XIa): 5.5 nM

Cc1nc(C(=O)N[C@H]2CC[C@H](N)CC2)ccc1-c1ccc(C[C@H](NC(=O)[C@H]2CC[C@H](CN)CC2)C(=O)Nc2ccc(-c3nn[nH]n3)cc2)cc1 [Example 31, 4-{6-[(trans-4-Aminocyclohexyl)carbamoyl]-2-methylpyridin-3-yl}-N-alpha-{[trans-4-(aminomethyl)cyclohexyl]carbonyl}-N-[4-(2H-tetrazol-5-yl)phenyl]-L-phenylalaninamide hydrochloride]
IC50 (human factor XIa): 1.9 nM

Cc1cc(C(=O)N2CCNC(=O)C2)ncc1-c1ccc(C[C@H](NC(=O)[C@H]2CC[C@H](CN)CC2)C(=O)Nc2ccc(-c3nnn[nH]3)cc2)cc1 [Example 32, N-alpha-{[trans-4-(Aminomethyl)cyclohexyl]carbonyl}-4-{4-methyl-6-[(3-oxopiperazin-1-yl)carbonyl]pyridin-3-yl}-N-[4-(1H-tetrazol-5-yl)phenyl]-L-phenylalaninamide hydrochloride]
IC50 (human factor XIa): 1.8 nM
